Test results published in patent publication US8492425B2, “5-methyl-1-(naphthalen-2-yl)-1H-pyrazoles useful as sigma receptor inhibitors” (Laboratories Del Dr. Esteve, S.A., priority 2008, dated 2013).
Where two headings read alike, the source gives them in different places.

Legend:
sigma-1 receptor = molecular target: T1, sigma-1 receptor (Cavia porcellus, UniProt Q60492); test: Sigma-1 receptor binding assay, [3H]-(+)-pentazocine displacement in guinea pig brain membranes; settings: for IC50: radioligand [3H]-(+)-pentazocine 3.0 nM, 150 min at 37° C., read-out: IC50 (inhibitory concentration); for Ki: read-out: Ki (binding affinity)
T1 construct: from tissue; host or cells: guinea pig brain membranes
T1 sequence (Q60492 whole entry): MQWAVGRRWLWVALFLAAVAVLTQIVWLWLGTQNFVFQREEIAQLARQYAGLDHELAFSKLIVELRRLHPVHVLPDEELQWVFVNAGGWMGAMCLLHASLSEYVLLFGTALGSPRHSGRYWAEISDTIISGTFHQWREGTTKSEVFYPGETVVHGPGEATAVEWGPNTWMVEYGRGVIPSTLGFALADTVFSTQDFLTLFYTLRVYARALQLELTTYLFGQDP

## Cc1cc(OCCN2CCOCC2)nn1-c1ccc2ccc(O)cc2c1 [Compound 4, 4-{2-[1-(7-hydroxynaphthalen-2-yl)-5-methyl-1H-pyrazol-3-yloxy]ethyl}morpholine chlorhydrate]
sigma-1 receptor; guinea pig brain membranes
  IC50: > 1000 nM

## Cc1cc(OCCN2CCOCC2)nn1-c1ccc2c(c1)C=CC(O)C2O (stereo not shown) [Compound 1, 6-(5-methyl-3-(2-morpholinoethoxy)-1H-pyrazol-1-yl)-1,2-dihydronaphthalene-1,2-diol]
sigma-1 receptor; guinea pig brain membranes
  IC50: > 1000 nM

## Cc1cc(OCCN2CCOCC2)nn1-c1ccc2ccc(O)cc2c1 (hydrate or solvate) [Compound 4, 4-{2-[1-(7-hydroxynaphthalen-2-yl)-5-methyl-1H-pyrazol-3-yloxy]ethyl}morpholine chlorhydrate]
other
  melting point: 103 to 107 °C

## Cc1cc(OCCNCCO)nn1-c1ccc2ccccc2c1 [Compound 5, 2-(2-(5-methyl-1-(naphthalen-2-yl)-1H-pyrazol-3-yloxy)ethylamino)ethanol chlorhydrate]
sigma-1 receptor; guinea pig brain membranes, [3H]-(+)-pentazocine 3.0 nM, calculated from IC50 by the Cheng-Prussof equation
  Ki: 102 nM

## Cc1cc(OCC[N+]2([O-])CCOCC2)nn1-c1ccc2ccccc2c1 [Compound 6, 4-(2-(5-methyl-1-(naphthalen-2-yl)-1H-pyrazol-3-yloxy)ethyl)morpholine 4-oxide]
sigma-1 receptor; guinea pig brain membranes
  IC50: > 1000 nM

## Cc1cc(OCCN2CCOCC2)nn1-c1ccc2c(O)cccc2c1 [Compound 3, 4-{2-[1-(5-hydroxynaphthalen-2-yl)-5-methyl-1H-pyrazol-3-yloxy]ethyl}morpholine]
sigma-1 receptor
  Ki: 329 nM

## Cc1cc(OCCN2CCOCC2)nn1-c1ccc2cc(O)ccc2c1 [Compound 2, 4-{2-[1-(6-hydroxynaphthalen-2-yl)-5-methyl-1H-pyrazol-3-yloxy]ethyl}morpholine chlorhydrate]
sigma-1 receptor; guinea pig brain membranes
  IC50: > 1000 nM
